Values quoted from earlier work in US20020148006A1, “Transgenic plants with modified sterol compositions” (Asgrow Seed Company, L.L.C., priority 1996, published 2002).

Test system: serum and/or plasma total cholesterol and low density lipoprotein (LDL) cholesterol
Details: comparison of phytosterol structures; cited from earlier work

In the case of `CC[C@H](CC[C@@H](C)[C@H]1CC[C@H]2[C@@H]3CC[C@H]4C[C@@H](O)CC[C@]4(C)[C@H]3CC[C@]12C)C(C)C` [sitostanol], the “Reduction of cholesterol levels” value is listed as “more efficient compared to unsaturated compounds such as sitosterol in reducing cholesterol levels”.
